Reference: PubChem BioAssay (NCI)
Values joined by “and” are separate entries in the source; they are usually repeats but may differ in a detail not shown here. Equal values may be shown once.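 A five-concentration, 48-hour dose response in 96-well plates underlies each endpoint, interpolated linearly between surrounding concentrations. The concentration for 50% growth inhibition is given as GI50. Definition used: TGI = concentration required for complete inhibition of growth.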

Legend:
Experiment in all cases: growth of human tumour cells (NCI), 48 h
A498 renal = system: A498 renal
SNB-19 CNS = system: SNB-19 CNS
SW-620 colon = system: SW-620 colon
UACC-257 melanoma = system: UACC-257 melanoma
OVCAR-3 ovarian = system: OVCAR-3 ovarian
EKVX NSCLC = system: EKVX NSCLC
SF-539 CNS = system: SF-539 CNS
HL-60(TB) leukemia = system: HL-60(TB) leukemia
DU-145 prostate = system: DU-145 prostate
HS 578T breast = system: HS 578T breast

Structure (SMILES) | TGI (A498 renal) [µM] | TGI (SNB-19 CNS) | TGI (SW-620 colon) [µM] | TGI (UACC-257 melanoma) [µM] | TGI (OVCAR-3 ovarian) [µM] | TGI (EKVX NSCLC) | TGI (SF-539 CNS) [µM] | TGI (HL-60(TB) leukemia) [µM] | TGI (DU-145 prostate) | TGI (HS 578T breast) [µM] | GI50 (A498 renal) [µM] | GI50 (SNB-19 CNS) [µM] | GI50 (HS 578T breast) [µM]
O=[N+]([O-])c1ccc(NC2OCC(O)C(O)C2O)cc1 (stereo unspecified) | > 100 | > 100 µM | > 100 | > 100 | > 100 | > 100 µM | > 100 | – | – | – | – | – | –
NC(=O)N/N=C(\Cc1nc2ccc(C(=O)c3ccccc3)cc2[nH]c1=O)C(=O)Nc1ccc(Br)cc1 | > 100 | > 100 µM | > 100 | > 100 | > 100 | > 100 µM | > 100 | > 100 | – | – | – | – | –
OC1C(O)C(O)C(O)C(O)C1O (stereo unspecified) | > 1000 | > 1000 µM | > 1000 | > 1000 | > 1000 | – | > 1000 | – | > 1000 µM | > 1000 | – | – | –
O=c1ccc2ccccc2o1 | > 100 | > 100 µM | > 100 | > 100 | > 100 | > 100 µM | > 100 | > 100 | – | – | – | – | –
Cc1cc(N(CCC#N)CCC#N)ccc1/C=C(\NC(=O)/C=C/c1ccccc1)NC(=O)Nc1ccc(Cl)cc1 | > 100 | > 100 µM | > 100 | > 100 | > 100 | > 100 µM | > 100 | > 100 | – | – | – | – | –
O=c1c2cc(Br)ccc2oc2nc3n(c(=O)c12)CCCS3 | > 100 | > 100 µM | > 100 | > 100 | > 100 | > 100 µM | > 100 | – | > 100 µM | > 100 | – | – | –
OC(c1cccs1)c1cc2ccccc2s1 (stereo unspecified) | – | > 10 µM | > 10 | > 10 | > 10 | > 10 µM | > 10 | > 10 | > 10 µM | > 10 | – | – | –
CC(C)(C)c1cc(-c2ccc(-c3cc(C(C)(C)C)c(O)c(C(C)(C)C)c3)cc2)cc(C(C)(C)C)c1O | > 100 | > 100 µM | > 100 | > 100 | > 100 | > 100 µM | > 100 | > 100 | > 100 µM | – | – | – | –
OCCCSc1ccccc1SCCCO | – | > 100 µM | > 100 | > 100 | > 100 | > 100 µM | > 100 | > 100 | > 100 µM | – | – | – | –
O=S(=O)(O)CCS | > 100 | > 100 µM | > 100 | > 100 | > 100 | > 100 µM | > 100 | – | > 100 µM | – | – | – | –
OCCSCCCSCCO | – | > 100 µM | > 100 | > 100 | > 100 | > 100 µM | > 100 | 80.7 | > 100 µM | – | – | – | –
O=C(CSc1nnc(Cc2ccccc2)o1)Nc1ccc(Cl)cc1 | > 100 | > 100 µM | > 100 | > 100 | > 100 | 92.4 µM | > 100 | > 100 | – | – | – | – | –
Oc1ccc(-c2nc3cc(C(F)(F)F)ccc3n2CC2CCCN3CCCCC23)cc1 (stereo unspecified) | 29.3 | – | 28.4 | 30.3 | 27 | 31 µM | 34.6 | 12.3 | 36.1 µM | 31.5 | – | – | –
COc1ccc(C(=O)N2CCN(c3ccc4c(c3)OCC(=O)N4)CC2)cc1 | – | > 100 µM | > 100 | > 100 | > 100 | > 100 µM | > 100 | > 100 | > 100 µM | > 100 | – | – | –
COC1=CC(=O)C(O)=C(C[C@@]2(C)[C@@H]3CCC[C@H](COC(=O)CCCCCNC(=O)OC(C)(C)C)[C@@]3(C)CC[C@@H]2C)C1=O | > 10 | > 10 µM | > 10 | > 10 | > 10 | > 10 µM | – | > 10 | > 10 µM | > 10 | – | – | –
CCSc1nc2sc(C)c(C)c2c(=O)n1-c1ccc(C(=O)O)cc1 | > 100 | > 100 µM | > 100 | > 100 | 74.4 | > 100 µM | 55 | > 100 | – | – | – | – | –
CCOC(=O)c1c(C)n(Cc2ccccc2)c2c1cc(O)c1[nH]c3c(c12)CCCC3 | – | 16.5 µM | 13.3 | 52.4 | 6.2 | 8.12 µM | 5.54 | 5.52 | 26.1 µM | 7.97 | – | – | –
Cc1cc2c(c3oc(C(O)(CO)C4CO4)cc(=O)c13)C(=O)c1c(O)cccc1C2=O (stereo unspecified) | 0.00403 | 0.00442 µM and 0.00494 µM | – | 0.0404 | – | 0.0171 µM and 0.0378 µM | 0.000212 | 0.00397 | 0.00249 µM and 0.00108 µM | 0.0078 | 0.00375 | 0.000231 | 0.000702
CN(C)C(=O)CC(C(=O)O)c1c[nH]c2ccccc12 (stereo unspecified) | > 100 | > 100 µM | > 100 | > 100 | > 100 | > 100 µM | > 100 | > 100 | – | – | – | – | –
COC(=O)C1OC(O[C@H]2CC[C@]3(C)[C@H]4CC=C5[C@@H]6CC(C)(C)CC[C@]6(C(=O)OC)[C@H](O)C[C@@]5(C)[C@]4(C)CC[C@H]3C2(C)C)C(O)C(O)C1O (stereo partly specified) | 26.1 | 26.9 µM | 24.9 | 29.1 | 22.1 | 21.4 µM | – | 13.7 | 21.6 µM | 34.1 | – | – | –
Cn1c(C(C#N)c2cc(Cl)ncn2)nc2ccccc21 (stereo unspecified) | > 100 | > 100 µM | > 100 | > 100 | > 100 | > 100 µM | > 100 | – | > 100 µM | – | – | – | –
Cc1ccc(C(=O)CC(Cl)=C(Cl)Cl)cc1 | > 100 | > 100 µM | > 100 | > 100 | > 100 | – | > 100 | > 100 | > 100 µM | > 100 | – | – | –
COC(=O)NCCc1[nH]nc2c1C(=O)C=C(OC)C2=O | – | 45.6 µM | 43.9 | 28.3 | 32 | 44.5 µM | 33.5 | 44 | > 100 µM | 88.1 | – | – | –
